Data: US20080287371A1, “MACROCYCLIC ANTAGONISTS OF THE MOTILIN RECEPTOR FOR MODULATION OF THE MIGRATING MOTOR COMPLEX” (Tranzyme Pharma Inc., priority 2007, published 2008)
Entries after “also recorded” stand apart in the source; their conditions may differ.

Assays:
[1] = system: post-prandial gastrointestinal activity; experiment: Strain gauge animal model (Method F): post-prandial gastrointestinal activity in fed dogs; format: in vivo, beagle dogs
Experimental: Gastrointestinal motility was measured for 24 hours by telemetry in freely moving beagle dogs instrumented with strain gauges on both the antrum and duodenum. The method utilized for the strain gauges was based upon that in the literature. (Edelbroek, M.; Schuurkes, J.; De Ridder, W.; Horowitz, M.; Dent, J.; Akkermans, L. Dig. Dis. Sci. 1995, 40, 901-911; Briejer, M. R.; Prins, N. H.; Schuurkes, J. A. Neurogastroenterol. Motil. 2001 13, 465-472.) Analogous methods that can be used are known. (Dog: Itohb, Z.; Honda, R.; Takeuchi, S.; Aizawa, I.; Takayanagi, R. Gastroenterol. Jpn. 1977, 12, 275-283; Iwai, T.; Nakamura, H.; Takanashi, H.; et al. Can. J. Physiol. Pharmacol. 1998, 76, 1103-1109; Dog and guinea pig, Ohno, T.; Kamiyama, Y.; Aihara, R.; Nakabayashi, T.; Mochiki, E.; Asao, T.; Kuwano, H. Neurogastroenterol. Motil. 2006, 18, 129-135; Rat: Bunce, K. T.; Elswood, C. J.; Ball, M. T. Br. J. Pharmacol. 1991, 102, 811-816; Guinea pig: Cooke, H. J.; Wang, Y. Z.; Frieling, T.; Wood, J. D. Am. J. Physiol. 1991, 261, G833-G840.) […]
Intraluminal pressures were recorded with a manometric assembly incorporating a sleeve sensor with a 4.8 cm length (outer diameter 5.4 mm) to monitor pyloric pressure waves. […]

[2] = system: fundic tone / gastric accommodation; experiment: Animal model of fundic accommodation (Method E, barostat, milk meal); format: in vivo, Beagle dogs
Experimental: Fundic accommodation in response to a 200 mL milk meal was measured using a barostat. This can be considered as a model for functional dyspepsia, at least some occurrences of which is known to be a result of poor gastric accommodation (Tack, J.; Piessevaux, H.; Coulie, B.; Caenepeel, P.; Janssens, J. Gastroenterology 1998, 115, 1346-1352; DiStefano, M.; Micelli, E.; Mazzocchi, S.; Tana, P.; Corazza, G. R. Eur. Rev. Med. Pharmacol. Sci. 2005, 9, 23-28; Kindt, S.; Tack, J. Gut 2006, 55, 1685-1691; van den Elzen, B. D.; Boeckxstaens, G. E. Aliment. Pharmacol. Ther. 2006, 23, 1499-1510.). The described method is based upon a literature method. (Meulemans A. Schuurkes J. Neurogastroenterol. Motil. 1995, 7, 151-155.) The use of gallbladder volume has been linked to the motilin effect in functional dyspepsia and also can be used as a biomarker to test the effect of an antagonist on FD in humans. (Kamerling, I. M. C.; Van Haarst, A. D.; De Kam, M. L.; Cohen, A. F.; Masclee, A. A. M.; Burggraaf, J. Aliment, Pharmacol. Ther. 2004, 19, 797-804.) Other methods can also be utilized for this assessment and have been reviewed. (DeSchepper, H. U.; Cremonini, F.,; Chitkara, D.; Camilleri, M. Neurogastroenterol. Motil. 2004, 16, 275-285.) The dog is often used as an appropriate model for GI diseases due to the similarity in the alimentary tracts between dogs and humans. Additionally, the dog motilin receptor has been identified and characterized with the expression profile determined. It shares 71% homology to the human receptor and 72% to the rabbit receptor. (Ohshiro, H.; Nonaka, M.; Ichikawa, K. Regul. Pept. 2008, 146, 80-87.)
Beagle dogs were trained to stand quietly in Pavlov frames. Each was implanted using the following procedure with a gastric and duodenal cannula under general anesthesia with standard aseptic precautions. After a medium laparotomy, an incision was made through the gastric wall in the longitudinal direction between the greater and the lesser curvature, 2 cm above the nerves of Latarjet. The gastric cannula (diameter 18 mm) was secured to the gastric wall by means of an appropriate suture and then brought out via a stab wound at the left quadrant of the hypochondrium. The duodenal cannula (diameter 4 mm) was implanted at about 12 cm distal to the pylorum. An incision of approximately 1 cm was made through the duodenal wall 3 cm distally from the site of implantation. The cannula was brought into the duodenum though this incision. The top of the cannula was brought out of the duodenal wall at the place of implantation and secured to the wall via suture. Afterwards, the duodenum was closed and the duodenal cannula was brought out via a stab wound at the right quadrant of the hypochondrium. Dogs were allowed a recovery period of 2 weeks during which they were treated with antibiotics.
Variations in gastric tone were measured by recording changes in the volume of air within an intragastric bag maintained at constant pressure (6 mm Hg) by a barostat. The barostat consists of an air injection system which is connected by a double-lumen polyvinyl tube to an ultrathin flaccid polyethylene bag with maximum volume of approximately 700 mL. Gastric tonic contractions cause the barostat to withdraw air to maintain the pressure, while relaxation triggers air injection to maintain pressure. In that manner, intrabag volume is an inverse measure of proximal gastric tone. Differences in gastric tone were recorded using a computer. […]

[3] = system: migrating motor complex (MMC); experiment: Strain gauge animal model (Method F): migrating motor complex in fasted dogs; format: in vivo, beagle dogs; conditions: for effect on the migrating motor complex (MMC): fasted beagle dogs
Experimental: Gastrointestinal motility was measured for 24 hours by telemetry in freely moving beagle dogs instrumented with strain gauges on both the antrum and duodenum. The method utilized for the strain gauges was based upon that in the literature. (Edelbroek, M.; Schuurkes, J.; De Ridder, W.; Horowitz, M.; Dent, J.; Akkermans, L. Dig. Dis. Sci. 1995, 40, 901-911; Briejer, M. R.; Prins, N. H.; Schuurkes, J. A. Neurogastroenterol. Motil. 2001 13, 465-472.) Analogous methods that can be used are known. (Dog: Itohb, Z.; Honda, R.; Takeuchi, S.; Aizawa, I.; Takayanagi, R. Gastroenterol. Jpn. 1977, 12, 275-283; Iwai, T.; Nakamura, H.; Takanashi, H.; et al. Can. J. Physiol. Pharmacol. 1998, 76, 1103-1109; Dog and guinea pig, Ohno, T.; Kamiyama, Y.; Aihara, R.; Nakabayashi, T.; Mochiki, E.; Asao, T.; Kuwano, H. Neurogastroenterol. Motil. 2006, 18, 129-135; Rat: Bunce, K. T.; Elswood, C. J.; Ball, M. T. Br. J. Pharmacol. 1991, 102, 811-816; Guinea pig: Cooke, H. J.; Wang, Y. Z.; Frieling, T.; Wood, J. D. Am. J. Physiol. 1991, 261, G833-G840.)
Calibrated strain gauges (Schuurkes, J. A. J.; Van der Schee, E. J.; Grashuis, J. L.; Charbon, G. R. A. in Gastrointestinal Motility in Health and Disease; Duthie, H. L., Ed., MTP Press, Lancaster (UK), 1978, pp 647-654) and bipolar extracellular electrodes were implanted under aseptic conditions in each of four female beagle dogs. (Bass, P.; Wiley, J. N. J. Appl. Physiol. 1972, 32, 567-570.) The strain gauges were sutured onto the seromuscular layer parallel to the axis of the circular muscle, on the distal antrum (3 cm orad to the distal pyloric loop), proximal duodenum (3 cm and 6 cm aborad to the pylorus) and distal pyloric muscle loop. The bipolar extracellular electrodes were implanted onto the scrosal side of the distal antrum and proximal duodenum 2 cm orad and aborad to the pylorus. The lead wires were brought out via a subcutaneous tunnel in the left costal flank through a stab wound between the scapulae. Postsurgically, the lead wires were soldered to the connectors and protected appropriately.
In the same surgical incision, a gastrostomy and duodenostomy were performed. The gastrostomy was situated anteriorly in the midventral region between the lesser and greater curvature 2 cm orad to the nerve of Latarget and kept patent with a stainless steel cannula (internal diameter 1.4 cm, length 7.0 cm). The duodenostomy was situated 10 cm aborad to the pylorus and was kept patent with a cannula of smaller diameter (internal diameter 0.9 cm, length 7.5 cm). A thin tubing (outer diameter 2.2 mm) was pulled across the pylorus and attached to the caps of the gastric and duodenal cannulae in order to facilitate placement of the manometric assembly postsurgically. The greater omentum was wrapped around the cannulae to secure positioning and then the cannulae were tightly capped between experiments to permit normal feeding. Dogs were allowed to recover for at least two weeks prior to conduct of any experiments.
Intraluminal pressures were recorded with a manometric assembly incorporating a sleeve sensor with a 4.8 cm length (outer diameter 5.4 mm) to monitor pyloric pressure waves. (Dent, J. Gastroenterology 1976, 71, 263-267.) Four side holes were spaced at 1.6-cm intervals along the sleeve length. Side holes at each end of the sleeve were used to measure antral and duodenal pressures and transmucosal potential difference (TMPD) simultaneously. (Arndorfer, R. C.; Stef, J. J.; Doss, W. J.; Linehan, J. H.; Hogan, W. J. Gastroenterol. 1977, 73, 23-27.) Two additional side holes were placed 3.3 and 1.6 cm orad to the proximal end of the sleeve (antral sites) and another two side holes were placed 1.6 and 3.3 cm aborad to the distal end of the sleeve (duodenal sites). All channels were perfused with degassed distilled water at 0.3 mL/min, except for the side holes used to measure the antroduodenal TMPD, which were perfused with saline. […]

MMC = conditions: dog; cited from earlier work

## CC(C)[C@H]1NC(=O)[C@@H](Cc2cccc(C(F)(F)F)c2)NCCOc2ccccc2CCCNC(=O)[C@H](CN(C)C)NC1=O [Compound 502]
[1]; 0.30 mg/kg i.v., 2 h after standard 75 g meal, during first hour, n=2, vehicle 106±10%
  post-prandial CA, % of pre-drug baseline: 58±4%
[1]; 0.30 mg/kg, i.v., fed dogs
  post-prandial activity: briefly attenuate post-prandial activity
[2]; 0.30 mg/kg i.v. bolus, continuous motilin infusion
  gastric accommodation in response to the meal: improved gastric accommodation
[2]; 0.30 mg/kg i.v., exogenous motilin 0.010 mg/kg/h i.v.
  effect on motilin-induced fundic contraction: antagonized the effects of exogenous motilin; also recorded: antagonized the fundic contraction induced by infusion of exogenous motilin
[2]; 0.30 mg/kg i.v., motilin infusion 0.010 mg/kg/h i.v., milk meal, vehicle 18.7±3.3, n=4, p<0.05
  AUC of fundic relaxation (0-to-5 min.): 27.3 ± 3.5 mL/h
[2]; 0.1, 0.3 and 1.0 mg/kg, i.v., preliminary experiment
  natural relaxation of the stomach in response to a meal (baseline, no motilin): did not disturb this baseline phenomenon
[2]; FIG. 3, cross-over design, N=6 dogs
  motilin-induced increase in fundic tone, dose dependence: prevented this increase in a dose-dependent manner
[3]; 0.30 mg/kg, i.v.
  effect on the migrating motor complex (MMC): lesser delay of MMCs
[3]; 1.0 mg/kg i.v., after 4 h
  contraction amplitude (CA), % of baseline CA: 52±21%
[3]; 1.0 mg/kg i.v., over the first hour
  contraction amplitude (CA), % of baseline CA: 5±2%
[3]; 1.0 mg/kg i.v., controls 99±15 min, P<0.01, n=4, mean±SEM
  time to first MMC: 225 ± 31 min
[3]; 1 mg/kg, i.v., N=6
  effect on the migrating motor complex (MMC): delay the migrating motor complex (MMC)
[3]; 0.10, 0.30, 1.0 mg/kg, i.v., after overnight fast
  phase III activity of the MMC: suppressed the regular occurrence of phase III activity of the MMC in a dose-dependent manner
[3]; 0.10 and 0.30 mg/kg doses, n=2
  time until CA returned to baseline levels: 3 h

## Cc1[nH]cnc1CN1CCc2c(c3ccccc3n2C)C1=O [Alosetron]
MMC
  effect on the MMC: block the MMC
